Test results taken from patent US11351265B2, “Process for formulating an anionic agent” (Dicerna Pharmaceuticals, Inc., priority 2013, dated 2022).
Converted amounts (≈) assume the structure as drawn.

Assay: Solubility of cholesterol in ethanol
Assay type: physicochemical
Conditions: organic solvent or mixture, room temperature, absence of other lipids and/or sterols, read-out: solubility limit in ethanol
Text: Thus, a process is provided for raising the amount of an original lipid, sterol and/or blend of lipid(s) and/or sterol(s) that may be solubilized in a solvent (e.g., an alcoholic solvent, e.g., ethanol) by pre-mixing other lipid(s), sterol(s) and/or blend of lipid(s) and/or sterol(s), as oils, powders and/or in solvent(s), before adding such a pre-mixture to the original solubility-limited lipid, sterol and/or blend of lipid(s), thereby effectively raising the solubility limit of the original lipid in the solvent. […] Without wishing to be bound by theory, it is believed that the newly discovered ability to provide high concentration solutions of lipids/sterols at such elevated concentrations enhances the homogeneity of a lipid-anionic agent particle population, as compared to the concentrations at which such lipids/sterols are routinely used within the particle formulation process.
The above-described process schematically exemplified in FIG. 1, which is also referred to herein as “2141”, was not only distinguished from other tested processes in the order of addition of DsiRNA-lipid complexes and additional lipids in ethanol, but also was distinguished from other processes by the concentration of lipids and sterols that were solubilized in the additional lipids in ethanol solution. […]

- solubility: 10 to 11 mg/mL (≈ 25.9 to 28.4 mM)
Structure (SMILES): CC(C)CCC[C@@H](C)[C@H]1CC[C@H]2[C@@H]3CC=C4C[C@@H](O)CC[C@]4(C)[C@H]3CC[C@]12C [cholesterol]
